For orientation: Km means the substrate concentration at which the rate is half of its maximum.

Data set [1] is described as follows: Enzyme kinetics of 4(S)-hydroxyevogliptin glucuronidation in pooled human liver microsomes. It is filed as in vitro ADME. Here is the method:
Therefore, a 20 min incubation time and 0.2 mg/mL microsomal protein concentration were selected for enzyme kinetics experiments. The reaction mixture comprised 50 mM Tris buffer (pH 7.4), 10 mM magnesium chloride, 0.025 mg/mL alamethicin, pooled human liver microsomes (20 μg protein), and various concentrations of 4(S)-hydroxyevogliptin (M2) (10 to 2,000 μM; final acetonitrile concentration not exceeding 0.5%, v/v), and was preincubated for 3 min at 37 °C. The reaction was initiated by adding UDPGA, and the mixture was further incubated (final volume of 100 μL) for 20 min at 37 °C in a shaking water bath. The reaction was stopped by adding 100 μL of MPPI (internal standard, 50 ng/mL) in ice-cold acetonitrile. The mixture was centrifuged at 13,000 rpm for 4 min at 4 °C. […]
Results represent the average of three independent experiments using human liver microsomes and human cDNA-expressed CYP and UGT enzymes. The kinetic parameters (Km and Vmax) for hydroxylation and glucuronidation were determined using the Michaelis-Menten equation [V = Vmax·S/(Km + S)], the Hill equation [V = Vmax·S^n/(Km^n + S^n)], or the isoenzyme equation [V = Vmax1·(S/Km1)/(1 + S/Km1) + Vmax2·(S/Km2)/(1 + S/Km2)] with the Enzyme Kinetics software (version 1.3; Systat Software Inc.). […] The intrinsic clearance (Clint) was calculated as Vmax/Km.
A general note: Liver microsomes are vesicles of endoplasmic reticulum, rich in cytochrome P450 enzymes.

Data set [2] is described as follows: Enzyme kinetics of evogliptin hydroxylation in pooled human liver microsomes. It is filed as in vitro ADME. Conditions: single-enzyme kinetics; for Km at 20 min: human, pH 7.4, Km. The procedure: Thus, a 20 min incubation time and 0.15 mg/mL microsomal protein concentration were used in subsequent experiments. […] The mixture was centrifuged at 13,000 rpm for 4 min at 4 °C. Subsequently, 50 μL of the supernatant were diluted with 50 μL of deionized water and an aliquot (5 μL) was injected onto the LC-MS/MS system. Results represent the average of three independent experiments using human liver microsomes and human cDNA-expressed CYP and UGT enzymes. […] Systat Software Inc.). In the above-mentioned equations, V was the velocity of the reaction at substrate concentration [S], Vmax was the maximum velocity, Km was the substrate concentration at which the V was half of Vmax, and n is the Hill constant. The intrinsic clearance (Clint) was calculated as Vmax/Km.

Substrate in the data set “not read”: CC(C)(C)OC[C@@H]1C(=O)NCCN1C(=O)C[C@H](N)Cc1cc(F)c(F)cc1F
The data set is described as follows: not read. Conditions: other: CYP3A5, single-enzyme kinetics; pH 7.4; 37.0 °C.

Substrate in data set [3]: CC(C)(C)OC[C@@H]1C(=O)NCCN1C(=O)C[C@H](N)[C@@H](O)c1cc(F)c(F)cc1F
Description: Enzyme kinetics of 4(S)-hydroxyevogliptin glucuronidation in human cDNA-expressed UGT2B4. It is filed as in vitro ADME. Conditions: other: UGT2B4, single-enzyme kinetics; pH 7.4; 37.0 °C. The procedure:
(§1) For the enzyme kinetic study, various concentrations of 4(S)-hydroxyevogliptin (M2) (25 to 2000 μM; final acetonitrile concentration not exceeding 0.5%, v/v) were incubated with human cDNA-expressed UGT2B4 or UGT2B7 enzymes (20 μg protein), 2 mM UDPGA, 0.025 mg/mL alamethicin, and 10 mM magnesium chloride in 50 mM Tris buffer (pH 7.4) for 20 min at 37 °C in a shaking water bath. After adding ice-cold acetonitrile containing internal standard (MPPI, 50 ng/mL), the mixture was centrifuged and diluted as described above, and an aliquot (5 μL) was analyzed using the LC-MS/MS system.
(§2) Results represent the average of three independent experiments using human liver microsomes and human cDNA-expressed CYP and UGT enzymes. The kinetic parameters (Km and Vmax) for hydroxylation and glucuronidation were determined using the Michaelis-Menten equation [V = Vmax·S/(Km + S)], the Hill equation [V = Vmax·S^n/(Km^n + S^n)], or the isoenzyme equation [V = Vmax1·(S/Km1)/(1 + S/Km1) + Vmax2·(S/Km2)/(1 + S/Km2)] with the Enzyme Kinetics software (version 1.3; Systat Software Inc.). In the above-mentioned equations, V was the velocity of the reaction at substrate concentration [S], Vmax was the maximum velocity, Km was the substrate concentration at which the V was half of Vmax, and n is the Hill constant. The intrinsic clearance (Clint) was calculated as Vmax/Km.

Substrate in data set [4]: CC(C)(C)OC[C@@H]1C(=O)NCCN1C(=O)C[C@H](N)[C@@H](O)c1cc(F)c(F)cc1F
The data set is described as follows: Enzyme kinetics of 4(S)-hydroxyevogliptin glucuronidation in human cDNA-expressed UGT2B7. In kind it is in vitro ADME. Conditions: other: UGT2B7, Hill equation kinetics; pH 7.4; 37.0 °C. Here is the method:
as §1, §2

Take `CC(C)(C)OC[C@@H]1C(=O)NCCN1C(=O)C[C@H](N)[C@@H](O)c1cc(F)c(F)cc1F` [4(S)-hydroxyevogliptin]: the “Vmax, formation of 4(S)-hydroxyevogliptin glucuronide (M4)” value in data set [1] (Hill equation) turned out to be 711.4 pmol/mg protein/min. Also, the Km at 20 min in data set [1] (pH 7.4, Hill equation) is 928 µM. `CC(C)(C)OC[C@@H]1C(=O)NCCN1C(=O)C[C@H](N)Cc1cc(F)c(F)cc1F` [evogliptin, (R)-4-((R)-3-amino-4-(2,4,5-trifluorophenyl)butanoyl)-3-(tert-butoxymethyl)-piperazin-2-one]: the Km at 20 min in data set [2] (formation of 4(R)-hydroxyevogliptin (M3)) is 124 µM. Besides, the Michaelis constant (Km) at 20 min in data set [2] (formation of 4(S)-hydroxyevogliptin (M2)) is 93.4 µM. Further, in data set [2], the “Vmax, formation of 4(R)-hydroxyevogliptin (M3)” value is recorded as 113.0 pmol/min/mg protein and the “Vmax, formation of 4(S)-hydroxyevogliptin (M2)” value was determined as 91.9 pmol/min/mg protein.

B1: CYP3A5 (Homo sapiens) (protein)
chain: MDLIPNLAVETWLLLAVSLVLLYLYGTRTHGLFKRLGIPGPTPLPLLGNVLSYRQGLWKFDTECYKKYGKMWGTYEGQLPVLAITDPDVIRTVLVKECYSVFTNRRSLGPVGFMKSAISLAEDEEWKRIRSLLSPTFTSGKLKEMFPIIAQYGDVLVRNLRREAEKGKPVTLKDIFGAYSMDVITGTSFGVNIDSLNNPQDPFVESTKKFLKFGFLDPLFLSIILFPFLTPVFEALNVSLFPKDTINFLSKSVNRMKKSRLNDKQKHRLDFLQLMIDSQNSKETESHKALSDLELAAQSIIFIFAGYETTSSVLSFTLYELATHPDVQQKLQKEIDAVLPNKAPPTYDAVVQMEYLDMVVNETLRLFPVAIRLERTCKKDVEINGVFIPKGSMVVIPTYALHHDPKYWTEPEEFRPERFSKKKDSIDPYIYTPFGTGPRNCIGMRFALMNMKLALIRVLQNFSFKPCKETQIPLKLDTQGLLQPEKPIVLKVDSRDGTLSGE
With B1, the kcat in “not read” was determined as 19.5 pmol/min/pmol CYP.

B2: UGT2B4 (Homo sapiens) (protein)
chain: GKVLVWPTEFSHWMNIKTILDELVQRGHEVTVLASSASISFDPNSPSTLKFEVYPVSLTKTEFEDIIKQLVKRWAELPKDTFWSYFSQVQEIMWTFNDILRKFCKDIVSNKKLMKKLQESRFDVVLADAVFPFGELLAELLKIPFVYSLRFSPGYAIEKHSGGLLFPPSYVPVVMSELSDQMTFIERVKNMIYVLYFEFWFQIFDMKKWDQFYSEVLGRPTTLSETMAKADIWLIRNYWDFQFPHPLLPNVEFVGGLHCKPAKPLPKEMEEFVQSSGENGVVVFSLGSMVSNTSEERANVIASALAKIPQKVLWRFDGNKPDTLGLNTRLYKWIPQNDLLGHPKTRAFITHGGANGIYEAIYHGIPMVGVPLFADQPDNIAHMKAKGAAVSLDFHTMSSTDLLNALKTVINDPLYKENAMKLSRIHHDQPVKPLDRAVFWIEFVMRHKGAKHLRVAAHDLTWFQYHSLDVTGFLLACVATVIFIITKCLFCVWKFVRTGKKGKRD
notes: purchased Corning Life Sciences
In the case of B2, in data set [3], the Km is recorded as 1,328 μM.

B3: UGT2B7 (Homo sapiens) (protein)
chain: GKVLVWAAEYSHWMNIKTILDELIQRGHEVTVLASSASILFDPNNSSALKIEIYPTSLTKTELENFIMQQIKRWSDLPKDTFWLYFSQVQEIMSIFGDITRKFCKDVVSNKKFMKKVQESRFDVIFADAIFPCSELLAELFNIPFVYSLSFSPGYTFEKHSGGFIFPPSYVPVVMSELTDQMTFMERVKNMIYVLYFDFWFEIFDMKKWDQFYSEVLGRPTTLSETMGKADVWLIRNSWNFQFPYPLLPNVDFVGGLHCKPAKPLPKEMEDFVQSSGENGVVVFSLGSMVSNMTEERANVIASALAQIPQKVLWRFDGNKPDTLGLNTRLYKWIPQNDLLGHPKTRAFITHGGANGIYEAIYHGIPMVGIPLFADQPDNIAHMKARGAAVRVDFNTMSSTDLLNALKRVINDPSYKENVMKLSRIQHDQPVKPLDRAVFWIEFVMRHKGAKHLRVAAHDLTWFQYHSLDVIGFLLVCVATVIFIVTKCCLFCFWKFARKAKKGKND
notes: purchased Corning Life Sciences (Woburn, MA, USA)
Take B3: the Km in data set [4] was 1003.8 µM.
